Test results from article PMC6156138, “Combination of a Latency-Reversing Agent With a Smac Mimetic Minimizes Secondary HIV-1 Infection in vitro” (Frontiers in Microbiology, 2018).
Read-outs that look alike come from different tables or passages of the source.

Assays:
[1] = tested on: latent HIV-1-infected U1 cells; experiment: HIV reactivation from latent cells: supernatant p24 antigen; format: cell-based; details: day 2, single drug (Figure 1B)
Method: (§1) The reactivation of HIV-1 from latently infected cells was determined by the measurement of supernatant p24 antigen and intracellular HIV-1 RNA levels. ACH-2 cells or U1 cells (5 × 10^5 cells/mL) were placed in 96-well plates, and then the cells were incubated with different concentrations of drugs for 24 h to extract RNA and for 48 h to collect the supernatant. The increase in supernatant p24 antigen levels was measured using […] G1200 (Fujirebio, Tokyo, Japan). The total RNA was extracted using an RNeasy Mini Kit (Qiagen, Hilden, Germany), following the manufacturer’s protocols. The cDNA was synthesized using PrimeScript RT Master Mix (Takara Bio, Shiga, Japan), and quantitative real-time PCR analyses for the intracellular HIV-1 RNA were carried out with PowerUp^TM SYBR Green Master Mix (Applied Biosystems, Foster City, CA, United States). The oligonucleotide primers used were as follows: 5′-[…]-3′ (forward) and 5′-[…]-3′ (reverse) for HIV-RNA detection; 5′-[…]-3′ (forward) and 5′-[…]-3′ (reverse) for β-actin. The HIV-RNA expressions were normalized with that of β-actin, which was indicated as the relative quantity, and the increase in HIV-1 RNA levels in the presence of a drug was compared with that without a drug.
(§2) FIGURE 1 (A,B) The increase in viral production from ACH-2 cells (A) and U1 cells (B) was examined by supernatant p24 antigen levels on day 2. (C,D) Changes in the intracellular HIV-1 mRNA levels due to treatment with these drugs in ACH-2 cells (C) and U1 cells (D) after 24 h of incubation.

[2] = tested on: latent HIV-1-infected ACH-2 cells; experiment: as above; format: cell-based; details: for viral production (supernatant p24 antigen levels): day 2, single drug (Figure 1A)
Method: as §1, §2
(§3) FIGURE 2 (A) Effect of birinapant when combined with TNF-α. The supernatant p24 levels with birinapant (1∼100 nM) in ACH-2 cell culture on day 2 are shown in white bars, and p24 values with birinapant when combined with TNF-α (10 ng/ml) are shown in black bars. (B) HIV-1 production from ACH-2 cells when reactivated by PEP005 (0.05∼50 nM) for 24 h. (C) Changes in the living cell numbers in the presence of drug(s) on days 1, 3, and 5.

[3] = Cytotoxicity assay (Cytotoxicity LDH Assay Kit); format: cell-based; details: human
Method: To determine the cytotoxicity induced by LRAs and its related compounds, cells (5 × 10^5 cells/mL) were cultured in the presence or absence of LRA. After 24 h, cytotoxicity assays were performed using a Cytotoxicity LDH Assay Kit (Dojindo, Kumamoto, Japan) according to the manufacturer’s instructions. The number of living cells with the drug was measured and compared with those without the drug, and data are shown as percentage (%) of control.

[4] = tested on: PBMCs from a cART-treated HIV-1 patient; experiment: Cytotoxicity in PBMCs from HIV-1-infected patient (PI staining, flow cytometry); format: cell-based, human; details: PBMCs of cART-treated HIV-1 patient, 24 h; birinapant 50 nM, PEP005 5 nM
Method: Supplementary file Data_Sheet_3.PDF: FIGURE S3 The combined effect of birinapant (50 nM) and PEP005 (5 nM) on cytotoxicity in PBMCs obtained from HIV-1-infected patients. PBMCs from a cART-treated HIV-1 patient were cultured for 24 h in the presence or absence of drug(s), and the percentage of propidium iodide (PI)^+ cells were measured by flow cytometric analysis. Click here for additional data file.

ACH-2 cells = experiment: Living cell numbers of ACH-2 cells in the presence of drug(s); format: cell-based; details: birinapant 50 nM; for cell toxicity / replication of ACH-2 cells: PEP005 5 nM (Figure 2C)
Method: as §3

cIAP = experiment: Determination of cIAP expression (western blotting); format: cell-based; details: ACH-2 cells, 24 h; birinapant 50 nM, PEP005 5 nM, TNF-α 10 ng/ml
Method: ACH-2 cells (1 × 10^6 cells/ml) were treated with different concentrations of the drug for 24 h, and the cells were washed twice with PBS. Cells were homogenized by CelLytic M Cell Lysis Reagent (Sigma-Aldrich, St. Louis, MO, United States) containing a protease inhibitor cocktail (Nacalai Tesque, Kyoto, Japan) and were incubated at room temperature (RT) for 15 min. The cells were then centrifuged at 13,000 rpm for 15 min, and the supernatant of the whole cell lysate was collected. The bicinchoninic acid (BCA) protein assay (Thermo Scientific, Rockford, IL, United States) was used to measure the actual protein amount in the treated and untreated cells. The protein extracts were separated through sodium dodecyl sulfate polyacrylamide gel electrophoresis (SDS-PAGE) and then were blotted onto a Trans Blot Turbo polyvinylidene difluoride (PVDF) membrane (Bio-Rad, Hercules, CA, United States). Protein bands were visualized using 3,3′,5,5′-tetramethylbenzidine (TMB) solution (Wako Pure Chemical). The sources of the antibodies were as follows: c-IAP1 (D5G9), c-IAP2 (58C7), and XIAP (3B6) were purchased from Cell Signaling Technology (Danvers, MA, United States); β-actin (C4) was purchased from Santa Cruz Biotechnology.
Supplementary file Data_Sheet_5.PDF: FIGURE S5 Western blotting (WB) analysis for IAP family proteins in ACH-2 cells. Cells were exposed to birinapant (50 nM) in the presence or absence of PEP005 (5 nM), with TNF-α (10 ng/ml) co-treatment for 24 h, and cell lysates were used for WB analysis. Click here for additional data file.

[5] = A3.01 cells, read-out: CC50 ± SD against A3.01
[6] = ACH-2 cells, read-out: CC50 ± SD against ACH-2
[7] = HL-60 cells, read-out: CC50 ± SD against HL-60
[8] = J1.1 cells, read-out: CC50 ± SD against J1.1
[9] = Jurkat cells, read-out: CC50 ± SD against Jurkat
[10] = OM10.1 cells, read-out: CC50 ± SD against OM10.1
[11] = U1 cells, read-out: CC50 ± SD against U1
[12] = U937 cells, read-out: CC50 ± SD against U937

SMILES | viral production (supernatant p24 antigen levels) [1] | decrease of supernatant p24 levels ([2]; ACH-2 cells reactivated by PEP005 (or TNF-α), simultaneously treated with birinapant 50 nM, 24 h) [%] | supernatant p24 antigen levels ([2]; ACH-2 cells, birinapant 1∼100 nM alone, day 2 (Figure 2A)) | viral production (supernatant p24 antigen levels) ([2]; ACH-2 cells) | CC50 at 24 h [3, 5] [µM] | CC50 at 24 h [3, 6] [µM] | CC50 at 24 h [3, 7] [µM] | CC50 at 24 h [3, 8] [µM] | CC50 at 24 h [3, 9] [µM] | CC50 at 24 h [3, 10] [µM] | CC50 at 24 h [3, 11] [µM] | CC50 at 24 h [3, 12] [µM] | ratio of dead cells (PI staining) [4] | cell toxicity / replication of ACH-2 cells (ACH-2 cells) | cIAP expression (western blotting) (cIAP) | supernatant HIV-1 p24 levels ([2]; ACH-2 cells, after 24 h, PEP005 5 nM and higher (Figure 2B)) | increase of supernatant HIV-1 p24 levels compared with unstimulated ACH-2 cells ([2]; ACH-2 cells, day 2 (Figure 1A)) [fold] | number of living cells (ACH-2 cells; day 5, PEP005 5 nM) [mL⁻¹]
CC[C@H](NC(=O)[C@H](C)NC)C(=O)N1C[C@@H](O)C[C@H]1Cc1c(-c2[nH]c3cc(F)ccc3c2C[C@@H]2C[C@H](O)CN2C(=O)[C@H](CC)NC(=O)[C@H](C)NC)[nH]c2cc(F)ccc12 [Birinapant] | only had a minor effect on HIV-1 reactivation | ~40 | failed to affect supernatant p24 antigen levels | only had a minor effect on HIV-1 reactivation | 0.2 ± 0.08 | > 100 | > 100 | 48 ± 0.9 | 13 ± 0.1 | 53 ± 8 | > 100 | > 100 | slightly increased the ratio of dead cells | failed to show cell toxicity | decreased expression of cIAP | – | – | –
C/C=C(/C)C(=O)O[C@H]1C(C)=C[C@]23C(=O)[C@@H](C=C(CO)[C@@H](O)[C@]12O)[C@H]1[C@@H](C[C@H]3C)C1(C)C [PEP005, ingenol-3-angelate] | increased viral production | – | – | increased viral production | 47 ± 9 | 19 ± 0.4 | > 100 | 44 ± 2 | 16 ± 3 | 84 ± 6 | > 100 | > 100 | failed to increase the number of dead cells | strongly inhibited the replication of ACH-2 cells | upregulation of cIAP-1 (and cIAP-2) | reactivated and increased the supernatant HIV-1 p24 levels | > 100 | 370000
